Results taken from US20190055590A1, “REGULARLY ARRANGED SPHEROIDS HAVING EQUAL SIZES AND USE THEREOF” (GAIA BioMedicine Inc., priority 2016, published 2019).

Experiments:
[1] = system: peritoneal dissemination (CT26 GFP+ cells); test: In vivo test: peritoneal dissemination after intraperitoneal transfer of CT26 GFP+ cells; set-up: species or system male BALB/c mice; conditions: mice, comparison with the vehicle group on the final day (Tukey-Kramer HSD test)
Excerpt: 1. Use male BALB/c mice (henceforth referred to as mouse or mice, 6 to 8 weeks old at the time of use). 2. Put the mice in a plastic cage (W 136 mm×L 208 mm×H 115 mm) of which bottom is covered with a sterilized floor covering (Paper Clean, Japan SLC, Inc.) in a number of mice not larger than 5 mice per one cage until they are used for the experiments. 3. Allow the mice to ingest solid feed CRF-1 (Oriental Yeast Co., Ltd.) and tap water of water bottle ad libitum during the breeding period. 4. Perform individual identification of the mice by ear punching at the time of arrival of the mice (identification number starts from 01). 1. […] 2. […] 3. […] 4. […] 5. Inject 0.2 mL of the cell suspension into the abdominal cavity of each mouse (2.0×10^6 cells/body) by using a syringe with 26 G hypodermic needle (TERUMO CORP.). […] Spread the extracted alimentary canal on a 100-mm dish, and obtain images of the total alimentary canal in a bright field and with fluorescence by using BZ9000. […] On the last day of the evaluation, sacrifice the mice by cervical dislocation, open up the abdomen by midline incision, and collect the ascites reserved in the abdominal cavity with absorbent cotton of which weight is measured beforehand. […]

CT26 GFP+ cells [2] = test: Tertiary screening: inhibition of spheroid formation, 2D vs 3D culture on 96 plate, ATP assay; type: cell-based; conditions: 96-well U-shaped bottom plate, pre-treatment or post-treatment
Experimental: Inoculation onto 96 Plate 1. […] 2. […] 3. […] 4. […] 5. […] 6. […] 7. […] 8. […] 1. Serially dilute a compound from the highest concentration of 20 μM at a common ratio of 1/10 for 7 doses (1% DMSO) with the medium. 2. Subsequently, add 10 μL of the serially diluted compound to the cell plate after the inoculation. 3. As for addition time of the drug, add the drug immediately after the inoculation (pre-treatment), or one day after the inoculation (post-treatment). On the final day of the evaluation, add CellTiter-Glo (registered trademark) 3D cell Viability Assay in the same volume as that of the culture volume, and 15 to 30 minutes thereafter, perform pipetting. Subsequently, transfer 120 μL of the cell lysate to Black Plate as required, and measure luminescence with a luminometer (Enspire etc.).

CT26 GFP+ cells [3] = conditions: 384-well plate, row with EDTA added (FIG. 1)
Experimental: 1. Proliferate CT26 GFP^+ cells to a subconfluent or confluent state, then remove the culture medium by suction, and then wash the cells with phosphate buffered saline (PBS, Invitrogen). 2. Remove PBS, then add a 0.05% trypsin solution [0.25% trypsin, 1 mmol/L EDTA•4Na (Invitrogen), diluted 5-fold with PBS], and allow the reaction under the conditions of 37° C., 5% CO2, and 95% air until cells are separated from the dish. 3. Add 10% FBS-RPMI 1640 to suspend the cells, and collect them. 4. Perform centrifugation (400 g, 3 minutes) at 4° C., and then re-suspend the precipitates (cells) in 10% FBS-RPMI 1640. 5. Mix a part of the cell suspension with 0.4% trypan blue solution (Sigma-Aldrich), and count live cells under a phase contrast microscope by using a cell counting plate (OneCell Counter, OneCell Inc.). 6. In the case of 2D culture, dilute the cell suspension with 10% FBS-0.1% DMSO-RPMI 1640 to 3.0×10^4 cells/mL, and inoculate the cells on a culture plate (ViewPlate-384, PerkinElmer) in a volume of 20 μL/well using BIOMEK (registered trademark) NXP (BECKMAN COULTER). 7. […]
1. Observe morphology of the spheroids by 2 types of methods, in a bright field and with fluorescence, by using IN Cell Analyzer 2000 (GE Healthcare) 72 Hours after the treatment with the drug. […] Evaluate the spheroids on the basis of the total fluorescence amount (density×area) obtained from GFP as an index. […]

Structure (SMILES) | effect on peritoneal dissemination (fluorescence amount emitted from the alimentary canal extracted on the last evaluation day) ([1]; FIG. 6) | effect on peritoneal dissemination (weight of the ascites collected on the last evaluation day) ([1]; FIG. 7) | ability to inhibit spheroid formation (CT26 GFP+ cells [2]) | spheroid formation (CT26 GFP+ cells [3])
O=C(NOC[C@H](O)CO)c1ccc(F)c(F)c1Nc1ccc(I)cc1F [PD0325901] | confirmed in vivo | confirmed in vivo | high ability to inhibit spheroid formation | –
O=C(O)CN(CCN(CC(=O)O)CC(=O)O)CC(=O)O [EDTA] | – | – | – | no spheroid formation
